Holding throughout (assay type): cell-based
The target of one experiment is T1, CYP1A2 (Homo sapiens, UniProt P05177).
T1 sequence (P05177 2-516): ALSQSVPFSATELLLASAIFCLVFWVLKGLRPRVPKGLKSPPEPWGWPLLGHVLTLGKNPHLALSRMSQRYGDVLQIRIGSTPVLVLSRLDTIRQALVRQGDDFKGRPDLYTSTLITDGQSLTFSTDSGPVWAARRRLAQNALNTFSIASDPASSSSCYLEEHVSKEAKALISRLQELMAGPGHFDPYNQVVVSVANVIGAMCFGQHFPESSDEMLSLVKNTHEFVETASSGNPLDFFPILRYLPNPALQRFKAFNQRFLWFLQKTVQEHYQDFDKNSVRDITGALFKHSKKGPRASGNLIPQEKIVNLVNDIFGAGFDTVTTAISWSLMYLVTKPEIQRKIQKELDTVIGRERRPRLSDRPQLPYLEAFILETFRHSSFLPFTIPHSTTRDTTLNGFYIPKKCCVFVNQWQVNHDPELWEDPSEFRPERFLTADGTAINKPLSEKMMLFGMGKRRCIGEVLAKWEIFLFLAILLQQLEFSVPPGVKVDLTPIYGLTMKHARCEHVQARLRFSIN
Nature of the experiment: EROD (ethoxyresorufin deethylase) assay in V79 cells expressing human CYP1A2.

The target of a further experiment is T2, CYP1B1 (Homo sapiens, UniProt Q16678).
T2 sequence (Q16678 1-543): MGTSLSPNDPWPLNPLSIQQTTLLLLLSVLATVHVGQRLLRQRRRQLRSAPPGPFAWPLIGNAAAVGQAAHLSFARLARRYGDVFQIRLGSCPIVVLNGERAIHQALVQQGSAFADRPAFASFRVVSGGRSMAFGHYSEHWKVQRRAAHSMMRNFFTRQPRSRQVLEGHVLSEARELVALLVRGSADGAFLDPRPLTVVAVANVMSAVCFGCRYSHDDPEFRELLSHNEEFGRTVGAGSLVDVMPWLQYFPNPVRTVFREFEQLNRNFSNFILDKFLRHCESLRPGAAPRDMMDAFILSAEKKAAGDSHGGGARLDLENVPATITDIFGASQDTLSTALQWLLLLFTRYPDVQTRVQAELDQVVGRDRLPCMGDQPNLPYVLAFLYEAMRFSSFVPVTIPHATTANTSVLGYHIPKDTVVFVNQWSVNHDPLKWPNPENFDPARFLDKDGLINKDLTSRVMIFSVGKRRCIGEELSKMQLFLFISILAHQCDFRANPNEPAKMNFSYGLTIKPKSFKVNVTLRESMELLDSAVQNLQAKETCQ
The experiment in a line: EROD (ethoxyresorufin deethylase) assay in V79 cells expressing human CYP1B1.

The next experiment deals with T3, CYP1A1 (Homo sapiens, UniProt P04798).
T3 sequence (P04798 1-512): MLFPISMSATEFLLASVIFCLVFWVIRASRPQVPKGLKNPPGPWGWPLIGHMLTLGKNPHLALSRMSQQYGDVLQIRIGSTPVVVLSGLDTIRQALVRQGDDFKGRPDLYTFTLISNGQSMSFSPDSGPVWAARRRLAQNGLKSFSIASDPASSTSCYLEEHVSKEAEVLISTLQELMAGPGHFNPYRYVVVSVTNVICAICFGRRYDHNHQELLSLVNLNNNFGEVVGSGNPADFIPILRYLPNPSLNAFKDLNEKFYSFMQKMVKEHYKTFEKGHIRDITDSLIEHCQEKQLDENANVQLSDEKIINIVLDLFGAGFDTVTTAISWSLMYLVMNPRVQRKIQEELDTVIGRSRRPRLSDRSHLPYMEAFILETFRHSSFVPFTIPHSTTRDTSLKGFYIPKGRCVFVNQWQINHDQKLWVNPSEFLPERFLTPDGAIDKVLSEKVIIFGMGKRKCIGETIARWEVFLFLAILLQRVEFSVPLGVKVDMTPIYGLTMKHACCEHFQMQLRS
Nature of the experiment: EROD (ethoxyresorufin deethylase) assay in V79 cells expressing human CYP1A1.

For the molecule `CC#Cc1ccc2ccc3cccc4ccc1c2c34` [1-PP, 1-(1-propynyl)-pyrene], the IC50 at CYP1A2 came to 0.65 µM; on CYP1B1 it was 0.218 µM; at CYP1A1, 0.005 µM.

The term IC50 denotes the midpoint of a concentration-inhibition curve.

The values are drawn from paper PMC5343665, “Cytochrome P450s in human immune cells regulate IL-22 and c-Kit via an AHR feedback loop” (Scientific Reports, 2017).
